Laboratory results published in patent US5034391A, “Piperazinylalkyl-3(2H)-pyridazinones and the use thereof as agents lowering blood pressure” (CL Pharma Aktiengesellschaft, priority 1988, dated 1991).

Columns and labels:
[1] = Solubility of the isolated salt in water (remark in the preparation examples); type: physicochemical; conditions: hydrochloride / dihydrochloride salt
alpha1 adrenoceptors = molecular target: T1, alpha1 adrenoceptors (Rattus norvegicus, UniProt P15823); assay: Affinity for alpha1 adrenoceptors: displacement of tritiated prazosin on rat cardiac membranes; type: binding; conditions: Ki from IC50 by Cheng and Prusoff, read-out: Inhibition constants at alpha-1-adrenoceptor (Ki)
T1 construct: from tissue; host or cells: rat cardiac membranes
T1 sequence (P15823 1-515): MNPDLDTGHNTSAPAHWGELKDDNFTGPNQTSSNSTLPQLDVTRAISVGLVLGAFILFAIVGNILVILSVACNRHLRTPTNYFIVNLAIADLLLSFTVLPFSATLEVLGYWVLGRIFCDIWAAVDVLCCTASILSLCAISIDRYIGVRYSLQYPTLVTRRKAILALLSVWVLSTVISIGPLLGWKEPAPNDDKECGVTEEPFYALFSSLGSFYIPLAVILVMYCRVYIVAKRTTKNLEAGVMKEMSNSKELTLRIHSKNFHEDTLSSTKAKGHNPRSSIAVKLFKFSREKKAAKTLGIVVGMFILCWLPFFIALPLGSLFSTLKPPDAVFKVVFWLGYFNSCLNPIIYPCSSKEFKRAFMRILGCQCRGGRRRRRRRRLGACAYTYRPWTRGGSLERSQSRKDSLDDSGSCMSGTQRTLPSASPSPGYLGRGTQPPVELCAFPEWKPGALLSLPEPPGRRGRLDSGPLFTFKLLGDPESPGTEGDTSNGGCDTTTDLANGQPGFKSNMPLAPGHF
Experimental: The affinity of compounds of the general formula I for alpha1 adrenoceptors was established using the method described by R. S. Williams, D. F. Dukes and […] in J. Cardiovasc. Pharmacol. 3, 522-531 (1981). In this method the competitive displacement of tritiated prazosin (2-(4-(2-furoyl)-1-piperazinyl)-4-amino-6,7-dimethoxy-quinazoline) on rat-cardiac membranes by the test substances is measured, and the IC50 (50% inhibition concentration) is determined as that concentration which brings about a 50% inhibition of the specific binding of tritiated prazosin to the alpha1 adrenoceptors in rat cardiac membranes.
The concentration-independent inhibitor constants K1 -alpha1 were determined from the IC50 values as stated by Y. Cheng and H. W.Prusoff in Biochem. Pharmacol. 22, 3099-3108 (1973).

5-HT-1A receptors = molecular target: T2, 5-HT-1A receptors (Rattus norvegicus, UniProt P19327); assay: Affinity for 5-HT-1A receptors: displacement of tritiated 8-OH-DPAT on rat brain membranes; type: binding; conditions: Ki from IC50 by Cheng and Prusoff, read-out: Inhibition constants at 5-HT1A-receptor (Ki)
T2 construct: 5-HT-1A receptors in rat brain membranes; from tissue; host or cells: rat brain membranes
T2 sequence (P19327 1-422): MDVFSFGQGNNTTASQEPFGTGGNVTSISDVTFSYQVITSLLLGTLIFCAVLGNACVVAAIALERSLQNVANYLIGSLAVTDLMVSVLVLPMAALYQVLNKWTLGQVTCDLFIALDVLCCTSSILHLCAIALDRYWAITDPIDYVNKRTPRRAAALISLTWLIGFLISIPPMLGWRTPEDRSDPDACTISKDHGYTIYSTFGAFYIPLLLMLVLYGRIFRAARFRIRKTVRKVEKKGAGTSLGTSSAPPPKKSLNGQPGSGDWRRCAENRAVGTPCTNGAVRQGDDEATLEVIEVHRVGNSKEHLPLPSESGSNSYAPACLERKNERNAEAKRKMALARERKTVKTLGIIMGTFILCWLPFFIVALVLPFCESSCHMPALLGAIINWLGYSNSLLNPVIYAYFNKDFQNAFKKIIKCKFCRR
Experimental: The affinity of compounds of the general formula I for 5-HT-1A receptors was determined by the method described by H. Gozlan, S. Elmestikawy, L. Pichat, J. Glowinski and M. Hamon in Nature 305, 140-142 (1983). In this method the competitive displacement of tritiated 8-OH-DPAT (8-hydroxy-(di-n-propylamino)tetralin) on rat brain membranes by the test substances is measured, and the IC50 (50% inhibition concentration) is determined as that concentration which brings about a 50% inhibition of the specific binding of tritiated 8-OH-DPAT to 5-HT-1A receptors in rat brain membranes.
The concentration-independent inhibitor constants K1 -alpha1 and K1 -5HT-1A were determined from the IC50 values as stated by Y. Cheng and H. W. Prusoff in Biochem. Pharmacol. 22, 3099-3108 (1973).

Row | solubility in water [1] | Ki (alpha1 adrenoceptors) [µM] | Ki (5-HT-1A receptors) [µM] | Compound
1 | readily soluble in water |  |  | CC(C)(C)n1ncc(NCCN2CCN(c3cccc(C(F)(F)F)c3)CC2)c(Cl)c1=O
2 | readily soluble in water |  |  | CC(C)(C)n1ncc(Cl)c(NCCN2CCN(c3cccc(C(F)(F)F)c3)CC2)c1=O
3 | soluble in water |  |  | COc1ccccc1N1CCN(CCCCCCNc2cnn(C)c(=O)c2Cl)CC1 [2-Methyl-4-chloro-5-((6-(4-(2-methoxyphenyl)-1-piperazinyl)hexyl)amino)-3(2H)-pyridazinone]
4 |  | 0.0826 | 0.523 | COc1ccc(C)cc1N1CCN(CCNc2cnn(C)c(=O)c2)CC1 [2-Methyl-5-((2-(4-(2-methoxy-5-methylphenyl)piperazinyl-1)ethyl)amino)-3(2H)-pyridazinone]
5 |  | 0.19 | 0.0436 | COc1ccccc1N1CCN(CCNc2cnn(C)c(=O)c2)CC1 [2-Methyl-5-((2-(4-(2-methoxyphenyl)-1-piperazinyl)ethyl)amino)-3(2H)-pyridazinone]
6 |  | 0.157 | 0.274 | Cn1ncc(NCCN2CCN(c3ccccc3)CC2)cc1=O [2-Methyl-5-((2-(4-phenylpiperazinyl-1)ethyl)amino)-3(2H)-pyridazinone]
7 |  | 0.0206 | 0.0242 | CCN(CCN1CCN(c2ccccc2OC)CC1)c1cnn(C)c(=O)c1 [2-Methyl-5-(ethyl-(2-(4-(2-methoxyphenyl)piperazinyl-1)ethyl)amino)-3(2H)-pyridazinone]
8 |  | 0.00133 | 0.0162 | COc1ccccc1N1CCN(CCNc2c(Br)cnn(C)c2=O)CC1 [2-Methyl-5-bromo-4-((2-(4-(2-methoxyphenyl)-1-piperazinyl)ethyl)amino)-3(2H)-pyridazinone]
9 |  | 0.00251 | 0.0808 | Cn1ncc(Cl)c(NCCN2CCN(c3ccccc3F)CC2)c1=O [2-Methyl-5-chloro-4-((2-(4-(2-fluorophenyl)piperazinyl-1)ethyl)amino-3(2H)-pyridazinone]
10 |  | 0.0224 | 0.126 | COc1cc(C)ccc1N1CCN(CCNc2c(Cl)cnn(C)c2=O)CC1 [2-Methyl-5-chloro-4-((2-(4-(2-methoxy-4-methylphenyl)piperazinyl-1)ethyl)amino)-3(2H)-pyridazinone]
11 |  | 0.00601 | 0.0851 | COc1ccc(C)cc1N1CCN(CCNc2c(Cl)cnn(C)c2=O)CC1 [2-Methyl-5-chloro-4-((2-(4-(2-methoxy-5-methylphenyl)piperazinyl-1)ethyl)amino)-3(2H)-pyridazinone]
12 |  | 0.0015 | 0.0166 | COc1ccccc1N1CCN(CCNc2c(Cl)cnn(C)c2=O)CC1 [2-Methyl-5-chloro-4-((2-(4-(2-methoxyphenyl)-1-piperazinyl)ethyl)amino)-3(2H)-pyridazinone]
13 |  | 0.0473 | 0.00831 | Cn1ncc(Cl)c(NCCN2CCN(c3cccc(C(F)(F)F)c3)CC2)c1=O [2-Methyl-5-chloro-4-((2-(4-(3-trifluoromethylphenyl)piperazinyl-1)ethyl)amino-3(2H)-pyridazinone]
14 |  | 0.0867 | 0.519 | Cn1ncc(Cl)c(NCCN2CCN(c3ccccc3)CC2)c1=O [2-Methyl-5-chloro-4-((2-(4-phenylpiperazinyl-1)ethyl)amino)-3(2H)-pyridazinone]
15 |  | 0.00563 | 0.0284 | COc1ccccc1N1CCN(CCNc2cc(Cl)nn(C)c2=O)CC1 [2-Methyl-6-chloro-4-((2-(4-(2-methoxyphenyl)piperazinyl-1)ethyl)amino)-3(2H)-pyridazinone]
16 |  | 0.011 | 0.0466 | COc1ccccc1N1CCN(CCCNc2cc(Cl)nn(C)c2=O)CC1 [2-Methyl-6-chloro-4-((3-(4-(2-methoxyphenyl)-1-piperazinyl)propyl)amino)-3(2H)-pyridazinone]
17 |  | 0.00448 | 0.0758 | COc1ccccc1N1CCN(CCNc2cnn(-c3ccccc3)c(=O)c2Cl)CC1 [2-Phenyl-4-chloro-5-((2-(4-(2-methoxyphenyl)piperazinyl-1)ethyl)amino)-3(2H)-pyridazinone]
18 |  | 0.00588 | 0.0336 | COc1ccccc1N1CCN(CCNc2cnn(C)c(=O)c2Br)CC1 [2-methyl-4-bromo-5-((2-(4-(2-methoxyphenyl)-1-piperazinyl)ethyl)amino)-3(2H)-pyridazinone]
19 | readily soluble in water |  |  | Cc1cccc(C)c1N1CCN(CCNc2cnn(C)c(=O)c2Cl)CC1 [2-methyl-4-chloro-5-((2-(4-(2,6-dimethylphenyl)-1-piperazinyl)ethyl)amino)-3(2H)-pyridazinone]
20 |  | 0.00757 | 0.0632 | COc1ccccc1N1CCN(CCNc2cnn(C)c(=O)c2Cl)CC1 [2-methyl-4-chloro-5-((2-(4-(2-methoxyphenyl)-1-piperazinyl)ethyl)amino)-3(2H)-pyridazinone]
21 | readily soluble in water |  |  | Cc1cccc(C)c1N1CCN(CCNc2c(Cl)cnn(C)c2=O)CC1 [2-methyl-5-chloro-4-((2-(4-(2,6-dimethylphenyl)-1-piperazinyl)ethyl)amino)-3(2H)-pyridazinone]
22 |  | 0.00348 | 0.0014 | COc1ccccc1N1CCN(CCCNc2c(Cl)cnn(C)c2=O)CC1 [2-methyl-5-chloro-4-((3-(4-(2-methoxyphenyl)-1-piperazinyl)propyl)amino)-3(2H)-pyridazinone]
23 | soluble in water |  |  | COc1ccccc1N1CCN(CCCCCCNc2c(Cl)cnn(C)c2=O)CC1 [2-methyl-5-chloro-4-((6-(4-(2-methoxyphenyl)-1-piperazinyl)hexyl)amino)-3(2H)-pyridazinone]
24 |  | 0.0128 | 0.0394 | COc1ccccc1N1CCN(CCNc2cnn(C(C)(C)C)c(=O)c2Cl)CC1 [2-t-Butyl-4-chloro-5-((2-(4-(2-methoxyphenyl)piperazinyl-1)ethyl)amino)-3(2H)-pyridazinone]
25 |  | 0.00603 | 0.0658 | COc1ccccc1N1CCN(CCNc2cnn(C(C)(C)C)c(=O)c2)CC1 [2-t-Butyl-5-((2-(4-(2-methoxyphenyl)piperazinyl-1)ethyl)amino)-3(2H)-pyridazinone]
26 |  | 0.0422 | 0.00945 | COc1ccccc1N1CCN(CCNc2c(Cl)cnn(C(C)(C)C)c2=O)CC1 [2-t-Butyl-5-chloro-4-((2-(4-(2-methoxyphenyl)piperazinyl-1)ethyl)amino)-3(2H)-pyridazinone]
27 |  | 0.00543 | 0.027 | COc1ccccc1N1CCN(CCNc2cn[nH]c(=O)c2Cl)CC1 [4-Chloro-5-((2-(4-(2-methoxyphenyl)-1-piperazinyl)ethyl)amino)-3(2H)-pyridazinone]
28 |  | 0.00783 | 0.0908 | COc1ccccc1N1CCN(CCNc2c(OC)cnn(C)c2=O)CC1 [5-Methoxy-2-methyl-4-((2-(4-(2-methoxyphenyl)-1-piperazinyl)ethyl)amino)-3(2H)-pyridazinone]

Row | Compound | solubility in water [1] | Ki (alpha1 adrenoceptors) [µM] | Ki (5-HT-1A receptors) [µM]
29 | COc1ccccc1N1CCN(CCCNc2cc(=O)n(C)c(=O)n2C)CC1 [URAPIDIL, reference compound] |  | 0.11 | 0.0931
